Source: publication PMC8836281, “Characterisation of Endogenous Peptides Present in Virgin Olive Oil” (International Journal of Molecular Sciences, 2022)
Read-outs that look alike come from different tables or passages of the source. One block for each compound: values may come before it. Residues, ends and D or L forms follow the SMILES beside them. No end group written: not given here.

What was measured:
rabbit-lung ACE = target: T1, rabbit-lung ACE (Oryctolagus cuniculus, UniProt P12822); experiment: ACE-inhibitory activity of synthetic peptides (fluorescence assay, substrate Abz-Gly-Phe(NO2)-Pro); format: biochemical; conditions: means ± SD of three different experiments, ND = not detected, read-out: ACEi Activity IC50 (µM) ± SD
T1 construct: rabbit-lung ACE (E.C.3.4.15.1., Sigma-Aldrich); purchased Sigma-Aldrich; host or cells: rabbit lung (tissue-derived enzyme)
T1 sequence (P12822 34-1310): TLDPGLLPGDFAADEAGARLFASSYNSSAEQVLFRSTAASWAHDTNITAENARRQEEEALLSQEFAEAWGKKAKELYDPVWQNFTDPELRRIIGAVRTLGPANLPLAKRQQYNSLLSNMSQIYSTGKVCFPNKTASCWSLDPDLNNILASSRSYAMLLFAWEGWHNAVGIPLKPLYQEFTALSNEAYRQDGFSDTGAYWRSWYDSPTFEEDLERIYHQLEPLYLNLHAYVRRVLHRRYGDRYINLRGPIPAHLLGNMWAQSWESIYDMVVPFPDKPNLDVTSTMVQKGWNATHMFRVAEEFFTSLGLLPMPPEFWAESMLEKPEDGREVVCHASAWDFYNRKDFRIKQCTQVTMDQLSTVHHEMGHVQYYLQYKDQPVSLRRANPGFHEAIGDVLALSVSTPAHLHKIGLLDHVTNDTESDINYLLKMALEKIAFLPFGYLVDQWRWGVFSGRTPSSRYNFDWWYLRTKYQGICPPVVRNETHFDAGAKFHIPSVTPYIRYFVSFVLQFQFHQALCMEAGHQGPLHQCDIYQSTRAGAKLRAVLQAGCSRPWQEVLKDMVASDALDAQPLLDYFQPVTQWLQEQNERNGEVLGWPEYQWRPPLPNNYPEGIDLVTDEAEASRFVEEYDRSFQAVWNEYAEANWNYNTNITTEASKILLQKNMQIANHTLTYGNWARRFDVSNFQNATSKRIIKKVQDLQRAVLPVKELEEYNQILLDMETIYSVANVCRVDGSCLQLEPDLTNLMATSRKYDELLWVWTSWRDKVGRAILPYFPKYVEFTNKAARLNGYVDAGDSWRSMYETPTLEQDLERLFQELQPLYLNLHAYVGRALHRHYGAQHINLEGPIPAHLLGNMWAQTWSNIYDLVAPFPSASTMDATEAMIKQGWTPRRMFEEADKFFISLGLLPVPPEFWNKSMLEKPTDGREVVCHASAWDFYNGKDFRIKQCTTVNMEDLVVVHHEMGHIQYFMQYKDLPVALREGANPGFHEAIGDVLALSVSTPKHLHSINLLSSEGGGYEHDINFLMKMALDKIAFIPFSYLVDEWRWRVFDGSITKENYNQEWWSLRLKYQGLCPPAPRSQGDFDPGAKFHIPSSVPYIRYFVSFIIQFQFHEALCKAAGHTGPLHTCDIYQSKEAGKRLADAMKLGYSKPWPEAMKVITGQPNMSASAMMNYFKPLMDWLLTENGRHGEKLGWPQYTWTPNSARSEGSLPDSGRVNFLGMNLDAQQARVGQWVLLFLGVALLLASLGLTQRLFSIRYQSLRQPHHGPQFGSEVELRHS
Experimental: The ACE-inhibitory activity of the synthetic peptides was determined according to the method described in [84], with some modifications. This assay is based on the ability of ACE to hydrolyse the substrate o-aminobenzoylglycyl-p-nitrophenylalanyl-proline (Abz-Gly-Phe-(NO2)-Pro, Bachem Feinchemikalien, Bubendorf, Switzerland), producing the fluorescent product o-aminobenzoylglycine (Abz-Gly). Reagents used include: buffer A: 150 mM Tris-HCl buffer (pH 8.3), with 0.1 µM ZnCl2; buffer B: 150 mM de Tris-HCl buffer (pH 8.4), with 1125 mM NaCl; ACE solution (stock): rabbit-lung ACE (E.C.3.4.15.1., Sigma-Aldrich), dissolved in buffer A containing 50% glycerol to make an enzyme concentration of 1 U/mL. This solution was diluted 1/20 with buffer A to obtain the working solution (50 mU/mL), which was prepared fresh every day to conduct the experiment. The substrate solution (Abz-Gly-Phe(NO2)-Pro) was dissolved in buffer B to a final concentration of 0.45 mM. This solution was also prepared every day before its use and was protected from light and kept at 4 °C. The assay was carried out using a fluorescence technique. Black polystyrene plates of 96 wells (Thermo Scientific, Waltham, Massachussets, USA) were used. The wells contained the following reaction solutions: control = 50 μL of Milli-Q water and 50 μL of ACE solution; blank = 50 μL of Milli-Q water and 50 μL of buffer A; sample = 50 μL of sample and 50 μL of ACE solution; sample blank = 50 μL of sample and 50 μL of buffer A. The enzymatic reaction was initiated by adding 200 μL (final volume in each well 300 μL) of substrate solution, and the plate was immediately mixed and incubated at 37 °C in a VICTORX5 fluorometer (PerkinElmer, USA). The fluorescence generated was measured after 30 min using 355 and 420 nm as excitation and emission wavelengths, respectively. The ACE-inhibitory activity of each sample was determined in triplicate. The ACE-inhibitory activity was calculated using the following formula: ACE inhibitory activity (%)=(FC−FB)−(FS−FBs)/FC−FB × 100 where FC (control) is the fluorescence emitted after the action of ACE on the substrate, without inhibitor (i.e., sample); FB (blank) is the fluorescence emitted by the substrate; FS (sample) is the fluorescence emitted after the action of ACE on the substrate, with inhibitor sample; and FBs (blank sample) are the fluorescences emitted by the substrate and the sample.
The ACE-inhibitory activity is expressed as IC50, which is the concentration of inhibitor required to inhibit the activity of ACE by 50%.

[1] = cited from earlier work
ACE = conditions: read-out: ACE inhibition IC50, cited from earlier work
[2] = tested on: pre- or hypertensive humans; design: method as in PMID 25608938; conditions: supplementation of pre- or hypertensive humans for longer than four weeks; meta-analysis of 30 trials; cited from earlier work

Compound: CC(C)[C@H](NC(=O)[C@H](CO)NC(=O)[C@H](Cc1ccc(O)cc1)NC(=O)[C@H](CS)NC(=O)[C@@H](N)CS)C(=O)N[C@@H](Cc1ccc(O)cc1)C(=O)O [Peptide no. 1 de novo, CCYSVY] (H-CCYSVY-OH)
IC50 (rabbit-lung ACE): 25.6 ± 0.41 µM

Compound: N[C@@H](CCC(=O)N[C@@H](CS)C(=O)NCC(=O)O)C(=O)O [glutathione]
antioxidant activity (TEAC) [1]: 0.9 TEAC

Compound: IPP
IC50 (ACE; peptides described in dairy): 5 µM | effect on systolic and diastolic blood pressure [2]: significant reduction in systolic and diastolic blood pressure

Compound: SVY
IC50 (ACE; C-terminal di-/tripeptide of de novo peptide no. 1): 8.1 µM

Compound: VPP
IC50 (ACE; peptides described in dairy): 9 µM | effect on systolic and diastolic blood pressure [2]: significant reduction in systolic and diastolic blood pressure

Next, values leading:

IC50 (rabbit-lung ACE): 3.76 ± 0.39 µM
Compound: CPANGFY [Peptide no. 19, CPANGFY]

IC50 (rabbit-lung ACE): 41.5 ± 2.09 µM
Compound: DCHYFL [Peptide no. 2 de novo, DCHYFL]

IC50 (rabbit-lung ACE): 0.98 ± 0.04 µM
Compound: NALLCSNS [compound 18]

IC50 (rabbit-lung ACE): 57.2 ± 4.31 µM
Compound: VCGEAFGKA [Peptide no. 14]
